Test results: PMC6349357, “Computational and experimental analysis of bioactive peptide linear motifs in the integrin adhesome” (PLoS ONE, 2019)
Marks after values point to notes of the source that are not given here.

Legend:
[1] = test system: resting platelets; test: Platelet aggregation induced by peptide in resting washed platelets (activation); format: cell-based, human (healthy volunteers); conditions: for Activation, 5μM / Activation, 20μM: S3 Table, n=3; for Activation, 5μM: peptide 5 μM; for Activation, 5μM / Activation, 20μM / Activation / Activation, donor 14 06 13 / Activation, donor 20 08 13: unit assumed; for Activation, 20μM: peptide 20 μM; for Activation: platelet aggregation in resting platelets after 6 minutes incubation with peptide, pal-peptides 20 μM, tat-peptides 50 μM, optical density, aggregometer, mean, n>=3; for Aggregation before TRAP activation, donor h: replicate donor h; for Aggregation before TRAP activation, donor h / Aggregation before TRAP activation, donor i / Aggregation before TRAP activation, donor j: pal 20 μM, tat 50 μM; for Aggregation before TRAP activation, donor i: replicate donor i; for Aggregation before TRAP activation, donor j: replicate donor j; for Activation, donor 14 06 13: replicate 14_06_13; for Activation, donor 14 06 13 / Activation, donor 18_06_13 / Activation, donor 20_06_13 / Activation, donor 20 08 13 / Activation, donor 22_08_13_DONOR1 / Activation, donor 22_08_13_DONOR2: SDC4 peptides and controls, 20 μM; for Activation, donor 18_06_13: replicate 18_06_13; for Activation, donor 18_06_13 / Activation, donor 20_06_13: in % (unit assumed); for Activation, donor 20_06_13: replicate 20_06_13; for Activation, donor 20 08 13: replicate 20_08_13; for Activation, donor 22_08_13_DONOR1: replicate 22_08_13_DONOR1; for Activation, donor 22_08_13_DONOR2: replicate 22_08_13_DONOR2
Description: (§1) Blood was drawn from healthy volunteers into a syringe containing a final volume of 15% Acid Citrate Dextrose (ACD). The blood/ACD mixture was then aliquoted into 15 ml Cellstar tubes, at volumes of 5ml per tube, and centrifuged at 150 rcf for 10 minutes to obtain platelet rich plasma (PRP). PRP was then transferred to a 50ml tube using a pipette. The pH was then adjusted to 6.5. Prostaglandin (PGE1) was then added with a final concentration of 1μM. The PRP was then centrifuged at 750 rcf. After centrifugation the platelet poor plasma (PPP) was discarded and the pellet was resuspended in buffer A (6 mM dextrose, 130 mM NaCl, 9 mM NaHCO3, 10 mM sodium citrate, 10 mM Tris base, 3 mM KCl, 0.81 mM KH2PO4 and 0.9 mM MgCl26H2O, pH 7.4). A platelet concentration of 3x10^5/μl or 1x10^6/μl was obtained by dilution depending on the experiment in which they were used. Platelets were left to rest for 45 minutes and supplemented with 1.8mM calcium chloride prior to use.
(§2) A platelet concentration of 3x10^5 /μl was used when performing standard aggregations and a concentration of 1x10^6 /μl was used for sample preparation for western blot analysis. The extent of platelet aggregation was measured by quantifying the optical density of the samples using the Bio-Data PAP-8 aggregometer (platelet aggregation profiler, Horsham, PA, USA). A temperature of 37°C was maintained and samples were stirred using magnets spinning at 1100 rpm. 200 μl of washed platelets was added to each aggregation tube. Different volumes of buffer, peptide and TRAP were added to achieve the desired concentrations. Peptide/buffer was added to each well after two minutes. TRAP, with a final concentration depending on the experiment, was added 6 minutes later and data was collected for an additional 7 minutes.

[2] = test system: TRAP-activated platelets; test: Inhibition of TRAP-induced platelet aggregation after pre-incubation with peptide; format: cell-based, human (healthy volunteers); conditions: for Aggregation after TRAP, peptide alone 1x (A 1x / B 1x) / Aggregation after TRAP, peptide alone 2x (A 2x / B 2x): TRAP 2 μM after 6 minutes pre-incubation, mean n = 3; for Aggregation after TRAP, peptide alone 1x (A 1x / B 1x): 4 μM pal-peptides, 10 μM tat-peptides; for Aggregation after TRAP, peptide alone 2x (A 2x / B 2x): double concentration of 4 μM (pal) / 10 μM (tat); for Aggregation after TRAP activation, donor h: replicate donor h; for Aggregation after TRAP activation, donor h / Aggregation after TRAP activation, donor i / Aggregation after TRAP activation, donor j: pal 20 μM, tat 50 μM; for Aggregation after TRAP activation, donor i: replicate donor i; for Aggregation after TRAP activation, donor j: replicate donor j; for Summary of effects of SDC4-derived palmitylated peptides and scrambled controls, 20μM: S2 Table B / S2 Fig, activation of resting platelets and inhibition of aggregation induced by 4 μM TRAP, in words; for Inhibition, donor 14_06_13: replicate 14_06_13; for Inhibition, donor 18_06_13: replicate 18_06_13; for Inhibition, donor 20_06_13: replicate 20_06_13; for Inhibition, donor 20_08_13: replicate 20_08_13
Description: as §1, §2

[3] = S3 Table, peptide 5 μM, aggregation after TRAP, n=3
[4] = S3 Table, peptide 20 μM, aggregation after TRAP, n=3
[5] = platelet aggregation induced by 4 μM TRAP in platelets pre-incubated with peptide (low value = inhibition), pal-peptides 20 μM, tat-peptides 50 μM, mean, n>=3
[6] = replicate 22_08_13_DONOR1, peptide 20 μM, TRAP 4 μM
[7] = replicate 22_08_13_DONOR2, peptide 20 μM, TRAP 4 μM

pal-KVGFFKR-FAKFEEERAR [B15p ITGA2b-JM U ITGB3-middle1, palmitylated chimeric peptide]
Activation, 5μM [1]: 2% | Activation, 20μM [1]: 4% | Platelet aggregation remaining after TRAP (low = inhibition) [2, 3]: 72 | Platelet aggregation remaining after TRAP (low = inhibition) [2, 4]: 71

pal-KVGFFKR-LGKKPIYKK [B18p ITGA2b-JM U SDC4-middle, palmitylated chimeric peptide]
Activation, 5μM [1]: 61% | Activation, 20μM [1]: 13% | Platelet aggregation remaining after TRAP (low = inhibition) [2, 3]: 65 | Platelet aggregation remaining after TRAP (low = inhibition) [2, 4]: 27

pal-FAKFEEERAR-(NH2) [pal-ITGB3_middle1, N-terminally palmitylated ITGB3 peptide …]
Activation, 5μM [1]: 2% | Activation, 20μM [1]: 2% | Activation [1]: 0% | Aggregation before TRAP activation, donor h [1]: 1 | Aggregation before TRAP activation, donor i [1]: 1 | Aggregation before TRAP activation, donor j [1]: 0 | Platelet aggregation remaining after TRAP (low = inhibition) [2, 3]: 73 | Platelet aggregation remaining after TRAP (low = inhibition) [2, 4]: 68 | Aggregation after TRAP, peptide alone 1x (A 1x / B 1x) [2]: 67.67 | Aggregation after TRAP, peptide alone 2x (A 2x / B 2x) [2]: 43.67 | Platelet aggregation remaining after TRAP (low = inhibition) [2, 5]: 45 | Aggregation after TRAP activation, donor h ([2]; TRAP 4 μM): 64 | Aggregation after TRAP activation, donor i ([2]; TRAP 4 μM): 60 | Aggregation after TRAP activation, donor j ([2]; TRAP 4 μM): 12

pal-KVGAAKR-RMKKKDEGSYD [B16p ITGA2b-JM U SDC4-JM, palmitylated chimeric peptide]
Activation, 5μM [1]: 3% | Activation, 20μM [1]: 0% | Platelet aggregation remaining after TRAP (low = inhibition) [2, 3]: 72 | Platelet aggregation remaining after TRAP (low = inhibition) [2, 4]: 4

pal-RMKKKDEGSYD-(NH2) [pal-SDC4_JM, N-terminally palmitylated syndecan-4 juxtamembrane peptide]
Activation, 5μM [1]: 2% | Activation, 20μM [1]: 1% | Activation [1]: 0% | Activation, donor 14 06 13 [1]: 1% | Activation, donor 18_06_13 [1]: 1 | Activation, donor 20_06_13 [1]: 2 | Activation, donor 20 08 13 [1]: 1% | Activation, donor 22_08_13_DONOR1 [1]: 0 | Activation, donor 22_08_13_DONOR2 [1]: 1 | Aggregation before TRAP activation, donor h [1]: 1 | Aggregation before TRAP activation, donor i [1]: 0 | Aggregation before TRAP activation, donor j [1]: 2 | Aggregation (inhibition effects of syndecan-derived peptides) ([2]; S2 Table A, peptide 20 μM, TRAP 4 μM, mean, n=6): 45 | Summary of effects of SDC4-derived palmitylated peptides and scrambled controls, 20μM [2]: Inhibitor | Platelet aggregation remaining after TRAP (low = inhibition) ([2]; S3 Table, peptide 5 μM, aggregation after TRAP, n=3, listed as A7p SDC4-JM): 75 | Platelet aggregation remaining after TRAP (low = inhibition) ([2]; S3 Table, peptide 5 μM, aggregation after TRAP, n=3, listed as Juxtamembrane (A)): 64 | Platelet aggregation remaining after TRAP (low = inhibition) ([2]; S3 Table, peptide 20 μM, aggregation after TRAP, n=3, listed as A7p SDC4-JM): 73 | Platelet aggregation remaining after TRAP (low = inhibition) ([2]; S3 Table, peptide 20 μM, aggregation after TRAP, n=3, listed as Juxtamembrane (A)): 45 | Aggregation after TRAP, peptide alone 1x (A 1x / B 1x) [2]: 66.33 | Aggregation after TRAP, peptide alone 2x (A 2x / B 2x) [2]: 64.33 | Platelet aggregation after TRAP activation [2, 5]: 4 ^* | Inhibition, donor 14_06_13 ([2]; peptide 20 μM, TRAP 4 μM): 72 | Inhibition, donor 18_06_13 ([2]; peptide 20 μM, TRAP 4 μM): 56 | Inhibition, donor 20_06_13 ([2]; peptide 20 μM, TRAP 4 μM): 74 | Inhibition, donor 20_08_13 ([2]; peptide 20 μM, TRAP 4 μM): 7 | Platelet aggregation remaining after TRAP (low = inhibition) [2, 6]: 3 | Platelet aggregation remaining after TRAP (low = inhibition) [2, 7]: 58 | Aggregation after TRAP activation, donor h ([2]; TRAP 4 μM): 4 | Aggregation after TRAP activation, donor i ([2]; TRAP 4 μM): 3 | Aggregation after TRAP activation, donor j ([2]; TRAP 4 μM): 5

pal-KVGAAKR [pal-ITGA2bJM2]
Activation, 5μM [1]: 1% | Activation, 20μM [1]: 1% | Platelet aggregation remaining after TRAP (low = inhibition) [2, 3]: 28 | Platelet aggregation remaining after TRAP (low = inhibition) [2, 4]: 3

KIKGPKLKY [pal-SDC4_middle Control 1, scrambled control of pal-SDC4_middle, reference compound]
Activation, donor 14 06 13 [1]: 4% | Activation, donor 18_06_13 [1]: 4 | Activation, donor 20_06_13 [1]: 0 | Activation, donor 20 08 13 [1]: 5% | Activation, donor 22_08_13_DONOR1 [1]: 6 | Activation, donor 22_08_13_DONOR2 [1]: 5 | Summary of effects of SDC4-derived palmitylated peptides and scrambled controls, 20μM [2]: Inhibitor and mild activator | Inhibition, donor 14_06_13 ([2]; peptide 20 μM, TRAP 4 μM): 8 | Inhibition, donor 18_06_13 ([2]; peptide 20 μM, TRAP 4 μM): 9 | Inhibition, donor 20_06_13 ([2]; peptide 20 μM, TRAP 4 μM): 2 | Inhibition, donor 20_08_13 ([2]; peptide 20 μM, TRAP 4 μM): 8 | Platelet aggregation remaining after TRAP (low = inhibition) [2, 6]: 5 | Platelet aggregation remaining after TRAP (low = inhibition) [2, 7]: 10
